Patent publication US12077503B2, “Substituted cyclic amides and their use as herbicides” (FMC CORPORATION, priority 2015, dated 2024)

Tests used:
Type in all cases: in vivo
Conditions in all cases: scale 0 to 100
[1] = system: bluegrass (annual bluegrass, Poa annua); assay: Test D preemergence
Text: (§1) Seeds of plant species selected from bluegrass (annual bluegrass, Poa annua), blackgrass (Alopecurus myosuroides), canarygrass (littleseed canarygrass, Phalaris minor), chickweed (common chickweed, Stellaria media), Galium (catchweed bedstraw, Galium aparine), bromegrass, downy (downy bromegrass, Bromus tectorum), field poppy (Papaver rhoeas), field violet (Viola arvensis), foxtail, green (green foxtail, Setaria viridis), deadnettle (henbit deadnettle, Lamium amplexicaule), ryegrass, Italian (Italian ryegrass, Lolium multiflorum), Kochia (Kochia scoparia), lambsquarters (Chenopodium album), oilseed rape (Brassica napus), pigweed (Amaranthus retroflexus), chamomile (scentless chamomile, Matricaria inodora), Russian thistle (Salsola kali), speedwell (bird's-eye speedwell, Veronica persica), barley, spring (spring barley, Hordeum vulgare), wheat, spring (spring wheat, Triticum aestivum), buckwheat, wild (wild buckwheat, Polygonum convolvulus), mustard, wild (wild mustard, Sinapis arvensis), oat, wild (wild oat, Avena fatua), radish, wild (wild radish, Raphanus raphanistrum), windgrass (Apera spica-venti), barley, winter (winter barley Hordeum vulgare), and wheat, winter (winter wheat, Triticum aestivum) were planted into a silt loam soil and treated preemergence with test chemicals formulated in a non-phytotoxic solvent mixture which included a surfactant.
(§2) Treated plants and controls were maintained in a controlled growth environment approximately 21 d after which time all species were compared to controls and visually evaluated. Plant response ratings, summarized in Table D, are based on a scale of 0 to 100 where 0 is no effect and 100 is complete control. A dash (-) response means no test result.

[2] = system: lambsquarters (Chenopodium album); assay: Test D preemergence
Text: as §1, §2

[3] = system: buckwheat, wild (wild buckwheat, Polygonum convolvulus); assay: Test D preemergence
Text: as §1, §2

[4] = system: ragweed (common ragweed, Ambrosia elatior); assay: Test E preemergence
Method in brief: (§3)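 Visual ratings from 0 (no effect) to 100 (complete control) were made versus controls 14 to 21 d after treatment. Seeds in silt loam were treated preemergence, or plants 2 to 18 cm tall in peat-based medium postemergence, with the test chemical in a surfactant-containing, non-phytotoxic solvent mixture, then held in a greenhouse.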

[5] = system: barnyardgrass (Echinochloa crus-galli); assay: Test E preemergence
Method in brief: as §3

corn (Zea mays) = assay: Test E preemergence
Method in brief: as §3

[6] = system: nightshade (eastern black nightshade, Solanum ptycanthum); assay: Test E preemergence
Method in brief: as §3

soybean (Glycine max) = assay: Test E preemergence
Method in brief: as §3

[7] = system: johnsongrass (Sorghum halepense); assay: Test E preemergence
Method in brief: as §3

[8] = system: lambsquarters (Chenopodium album); assay: Test E preemergence
Method in brief: as §3

[9] = system: crabgrass, Brazil (Brazilian crabgrass, Digitaria horizontalis); assay: Test E preemergence
Method in brief: as §3

[10] = system: nutsedge, yellow (yellow nutsedge, Cyperus esculentus); assay: Test E preemergence
Method in brief: as §3

[11] = system: surinam grass (Brachiaria decumbens); assay: Test E preemergence
Method in brief: as §3

[12] = system: ryegrass, Italian (Italian ryegrass, Lolium multiflorum); assay: Test E preemergence
Method in brief: as §3

[13] = system: sandbur (southern sandbur, Cenchrus echinatus); assay: Test E preemergence
Method in brief: as §3

[14] = system: goosegrass (Eleusine indica); assay: Test E preemergence
Method in brief: as §3

CN1CC(c2ccc(C(F)(F)F)cc2)C(C(=O)Nc2ccccc2S(C)(=O)=O)C1=O (stereo not drawn) [Compound 624]
100: Plant response rating: Crabgrass, Brazil ([9]; 250 g ai/ha) | Plant response rating: Goosegrass ([14]; 250 g ai/ha)
0: Plant response rating: Lambsquarters ([2]; 31 g ai/ha) | Plant response rating: Buckwheat, Wild ([3]; 31 g ai/ha) | Plant response rating: Buckwheat, Wild ([3]; 62 g ai/ha) | Plant response rating: Barnyardgrass ([5]; 31 g ai/ha) | Plant response rating: Corn (corn (Zea mays); 31 g ai/ha) | Plant response rating: Corn (corn (Zea mays); 62 g ai/ha) | Plant response rating: Soybean (soybean (Glycine max); 31 g ai/ha) | Plant response rating: Johnsongrass ([7]; 31 g ai/ha) | Plant response rating: Johnsongrass ([7]; 62 g ai/ha) | Plant response rating: Lambsquarters ([8]; 31 g ai/ha) | Plant response rating: Lambsquarters ([8]; 62 g ai/ha) | Plant response rating: Nutsedge, Yellow ([10]; 31 g ai/ha) | Plant response rating: Nutsedge, Yellow ([10]; 62 g ai/ha) | Plant response rating: Nutsedge, Yellow ([10]; 125 g ai/ha) | Plant response rating: Ryegrass, Italian ([12]; 31 g ai/ha) | Plant response rating: Ryegrass, Italian ([12]; 62 g ai/ha)
85: Plant response rating: Lambsquarters ([8]; 250 g ai/ha)
80: Plant response rating: Nightshade ([6]; 125 g ai/ha) | Plant response rating: Nightshade ([6]; 250 g ai/ha) | Plant response rating: Crabgrass, Brazil ([9]; 31 g ai/ha) | Plant response rating: Crabgrass, Brazil ([9]; 62 g ai/ha) | Plant response rating: Goosegrass ([14]; 125 g ai/ha)
20: Plant response rating: Ragweed ([4]; 31 g ai/ha) | Plant response rating: Ragweed ([4]; 62 g ai/ha) | Plant response rating: Corn (corn (Zea mays); 250 g ai/ha) | Plant response rating: Soybean (soybean (Glycine max); 125 g ai/ha) | Plant response rating: Surinam Grass ([11]; 31 g ai/ha)
40: Plant response rating: Surinam Grass ([11]; 125 g ai/ha)
55: Plant response rating: Bluegrass ([1]; 125 g ai/ha)
75: Plant response rating: Nightshade ([6]; 62 g ai/ha) | Plant response rating: Goosegrass ([14]; 62 g ai/ha)
95: Plant response rating: Crabgrass, Brazil ([9]; 125 g ai/ha)
35: Plant response rating: Lambsquarters ([2]; 125 g ai/ha) | Plant response rating: Johnsongrass ([7]; 125 g ai/ha)
65: Plant response rating: Bluegrass ([1]; 250 g ai/ha) | Plant response rating: Barnyardgrass ([5]; 250 g ai/ha)
15: Plant response rating: Buckwheat, Wild ([3]; 125 g ai/ha) | Plant response rating: Ryegrass, Italian ([12]; 250 g ai/ha)
10: Plant response rating: Bluegrass ([1]; 31 g ai/ha) | Plant response rating: Corn (corn (Zea mays); 125 g ai/ha) | Plant response rating: Soybean (soybean (Glycine max); 62 g ai/ha) | Plant response rating: Soybean (soybean (Glycine max); 250 g ai/ha) | Plant response rating: Nutsedge, Yellow ([10]; 250 g ai/ha) | Plant response rating: Ryegrass, Italian ([12]; 125 g ai/ha) | Plant response rating: Sandbur ([13]; 31 g ai/ha)
30: Plant response rating: Ragweed ([4]; 125 g ai/ha) | Plant response rating: Ragweed ([4]; 250 g ai/ha) | Plant response rating: Barnyardgrass ([5]; 62 g ai/ha) | Plant response rating: Surinam Grass ([11]; 62 g ai/ha) | Plant response rating: Sandbur ([13]; 62 g ai/ha)
25: Plant response rating: Bluegrass ([1]; 62 g ai/ha)
50: Plant response rating: Buckwheat, Wild ([3]; 250 g ai/ha) | Plant response rating: Barnyardgrass ([5]; 125 g ai/ha) | Plant response rating: Lambsquarters ([8]; 125 g ai/ha) | Plant response rating: Sandbur ([13]; 125 g ai/ha) | Plant response rating: Sandbur ([13]; 250 g ai/ha) | Plant response rating: Goosegrass ([14]; 31 g ai/ha)
70: Plant response rating: Lambsquarters ([2]; 62 g ai/ha) | Plant response rating: Nightshade ([6]; 31 g ai/ha) | Plant response rating: Surinam Grass ([11]; 250 g ai/ha)
60: Plant response rating: Lambsquarters ([2]; 250 g ai/ha)
